Values of other authors in patent US6855835B2, “Allomorph of isomer Z hydrochloride of alkylaminofurane derivative” (Pharmexcel SRL, priority 2000, dated 2005).

Legend:
[1] = tested on: histamine H2-receptors; details: Z isomer compared with E isomer; suggested by authors (10, 11)
[2] = form 2 compared with form 1; quoted from prior patent (6)

histamine H2-receptors, sequence (P25021 whole entry): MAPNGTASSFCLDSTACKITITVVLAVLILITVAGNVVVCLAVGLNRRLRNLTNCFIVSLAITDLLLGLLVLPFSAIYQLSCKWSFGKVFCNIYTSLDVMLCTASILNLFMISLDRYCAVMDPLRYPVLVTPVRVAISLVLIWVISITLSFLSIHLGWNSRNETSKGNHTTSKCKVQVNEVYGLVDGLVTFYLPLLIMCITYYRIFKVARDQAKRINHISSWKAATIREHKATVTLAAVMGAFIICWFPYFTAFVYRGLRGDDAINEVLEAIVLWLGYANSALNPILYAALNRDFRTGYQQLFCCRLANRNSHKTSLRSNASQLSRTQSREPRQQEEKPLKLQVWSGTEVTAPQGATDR

affinity for histamine H2-receptors [1] | hygroscopicity [2] | Compound
greater configurational affinity | – | CN/C(=C/[N+](=O)[O-])NCCSCc1ccc(CN(C)C)o1 (single isomer, unassigned) [Z, (N-[2-[[[5-(dimethylamino)methyl-2-furanyl]methyl]thio]ethyl]-N′-methyl-2-nitro-1,1-ethenediamine)]
– | less hygroscopic than form 1 | CNC(=C[N+](=O)[O-])NCCSCc1ccc(CN(C)C)o1.Cl (racemic) [form 2, N-[2-[[[5-(dimethylamino)methyl-2-furanyl]methyl]thio]ethyl]-N′-methyl-2-nitro-1,1-ethenediamine hydrochloride]
